Read-outs that look alike come from different tables or passages of the source. Where no end group is shown, it is not given here.
Legend:
[1] = tested on: CD4+ PBMC; type: cell-based, human
[2] = target: T1, DRB1*0101 (Homo sapiens, UniProt P01903+P01911, A100R/D57E/F55L/F60I/F76Y/I96L/L162R/M171V/P40L/Q125E/R42F/V115G/Y59C); experiment: biochemical; type: binding
T1 construct: made in house; host or cells: EBV-transformed homozygous human B cell lines, transfected fibroblasts or single-allele 721.221 transfectants

[3] = target: T2, DRB1*0401 (Homo sapiens, UniProt P01903+P01911, A100K/A169T/F76Y/I96L/K127E/L162R/M171V/N62H/P40V/Q125Y/R42H/S133A/S149N/S66Y/V115G/V209L/W38E); experiment: biochemical; type: binding; conditions: read-out: IC50 nM to purified HLA DRB1*0401
T2 construct: made in house; host or cells: EBV-transformed homozygous human B cell lines, transfected fibroblasts or single-allele 721.221 transfectants

[4] = target: DRB1*1302 (Homo sapiens, UniProt P01903+P01911, A100E/A169T/K41T/L162R/M171V/P40S/Q125H/Q178H/Q39Y/Q99D/R42S/S66N/T262R/V115G/W38E/Y61H); experiment: biochemical; type: binding; conditions: read-out: IC50 nM to purified HLA DRB1*1302
[5] = target: T3, DRB1*1501 (Homo sapiens, UniProt P01903+P01911); experiment: biochemical; type: binding; conditions: read-out: IC50 nM to purified HLA DRB1*1501
T3 construct: made in house; host or cells: EBV-transformed homozygous human B cell lines, transfected fibroblasts or single-allele 721.221 transfectants

[6] = target: T4, DRB4*0101 (Homo sapiens, UniProt P01903+P13762, G164S); experiment: biochemical; type: binding
T4 construct: made in house; host or cells: EBV-transformed homozygous human B cell lines, transfected fibroblasts or single-allele 721.221 transfectants

[7] = target: T5, DRB1*0301 (Homo sapiens, UniProt P01903+P01911, A100K/A102G/A103R/A169T/F55Y/I96L/K41T/L162R/M171V/P40S/Q125H/Q178H/Q39Y/R42S/S66N/T106N/T262R/W38E/Y61H); experiment: biochemical; type: binding
T5 construct: made in house; host or cells: EBV-transformed homozygous human B cell lines, transfected fibroblasts or single-allele 721.221 transfectants

[8] = target: DRB1*0404 (Homo sapiens, UniProt P01903+P01911, A100R/A169T/F76Y/I96L/K127E/L162R/M171V/N62H/P40V/Q125Y/R42H/S133A/S149N/S66Y/V209L/W38E); experiment: biochemical; type: binding; conditions: IC50 nM to purified HLA DRB1*0404
[9] = IC50 nM to purified HLA DRB1*0101
[10] = IC50 nM to purified HLA DRB4*0101
[11] = IC50 nM to purified HLA DRB1*0101, Table 4
[12] = IC50 nM to purified HLA DRB4*0101, Table 4

DRB1*1302, sequence (P01903 26-254 limits assumed, other chains not shown): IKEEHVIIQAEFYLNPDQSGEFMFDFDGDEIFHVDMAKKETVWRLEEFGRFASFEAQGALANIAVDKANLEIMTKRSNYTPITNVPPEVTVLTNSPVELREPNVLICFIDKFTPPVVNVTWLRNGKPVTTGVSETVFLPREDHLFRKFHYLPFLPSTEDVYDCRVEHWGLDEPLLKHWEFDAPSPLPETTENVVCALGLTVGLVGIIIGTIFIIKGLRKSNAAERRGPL
T5 sequence (P01903 26-254, other chains not shown): as the sequence (P01903 26-254 limits assumed, other chains not shown) above

Compound | IC50 [2, 9] [nM] | IC50 [3] [nM] | IC50 [4] [nM] | IC50 [5] [nM] | IC50 [6, 10] [nM] | other results
CC[C@H](C)[C@H](NC(=O)CNC(=O)[C@@H](N)CCCCN)C(=O)N[C@@H](CC(C)C)C(=O)NCC(=O)N[C@@H](Cc1ccccc1)C(=O)N[C@H](C(=O)N[C@@H](Cc1ccccc1)C(=O)N[C@H](C(=O)N[C@@H](CC(C)C)C(=O)N[C@H](C(=O)N[C@H](C(=O)N1CCC[C@H]1C(=O)N[C@@H](CO)C(=O)N[C@@H](CCC(=O)O)C(=O)O)C(C)C)[C@@H](C)O)[C@@H](C)O)C(C)C [Flu.M1.60] |  |  |  |  |  | Human influenza epitope-specific immune response, donor 753 [1]: Positive (key: Positive: Donors were considered positive for a peptide if the number of spots was over 3 times background as determined by responses to irrelevant peptides (non influenza)); Human influenza epitope-specific immune response, donor 6018 [1]: Positive (key: Positive: Donors were considered positive for a peptide if the number of spots was over 3 times background as determined by responses to irrelevant peptides (non influenza)); Human influenza epitope-specific immune response, donor AC02 [1]: Positive (key: Positive: Donors were considered positive for a peptide if the number of spots was over 3 times background as determined by responses to irrelevant peptides (non influenza)); Human influenza epitope-specific immune response, donor AC08 [1]: Positive (key: Positive: Donors were considered positive for a peptide if the number of spots was over 3 times background as determined by responses to irrelevant peptides (non influenza))
CC[C@H](C)[C@H](NC(=O)[C@H](CCC(N)=O)NC(=O)[C@H](Cc1ccc(O)cc1)NC(=O)[C@H](CCC(=O)O)NC(=O)[C@H](CC(C)C)NC(=O)[C@@H](N)CC(N)=O)C(=O)NCC(=O)N[C@@H](Cc1ccc(O)cc1)C(=O)N[C@H](C(=O)N[C@@H](CS)C(=O)N[C@@H](CO)C(=O)NCC(=O)N[C@H](C(=O)N[C@@H](Cc1ccccc1)C(=O)NCC(=O)O)C(C)C)[C@@H](C)CC [Flu.NA.289] | 1130 | 975 | 41 | 13 | 354 | 
CC[C@H](C)[C@H](NC(=O)[C@H](CC(C)C)NC(=O)[C@@H]1CCCN1C(=O)[C@@H](N)CC(N)=O)C(=O)N[C@@H](CCCNC(=N)N)C(=O)N[C@@H](Cc1c[nH]cn1)C(=O)N[C@@H](CCC(=O)O)C(=O)N[C@@H](CC(N)=O)C(=O)N[C@@H](CCCNC(=N)N)C(=O)N[C@@H](CCSC)C(=O)N[C@H](C(=O)N[C@@H](CC(C)C)C(=O)N[C@@H](C)C(=O)N[C@@H](CO)C(=O)N[C@H](C(=O)O)[C@@H](C)O)C(C)C [Flu.M1.173] |  |  |  |  |  | Human influenza epitope-specific immune response, donor AC02 ([1]; IFNγ ELISPOT, five day expansion with peptide pool, CD8-depleted): Positive (Donors were considered positive for a peptide if the number of spots was over 3 times background as determined by responses to irrelevant peptides (non influenza))
CC[C@H](C)[C@H](NC(=O)[C@@H](N)CC(=O)O)C(=O)N[C@@H](CC(C)C)C(=O)N[C@@H](CCSC)C(=O)N[C@@H](CCCNC(=N)N)C(=O)N[C@@H](CCSC)C(=O)N[C@@H](CO)C(=O)N[C@@H](CCCCN)C(=O)N[C@@H](CCSC)C(=O)N[C@@H](CCC(N)=O)C(=O)N[C@@H](CC(C)C)C(=O)NCC(=O)N[C@@H](CO)C(=O)N[C@@H](CO)C(=O)N[C@@H](CO)C(=O)O [Flu.NS2.87] | 2140 | 717 | 423 | 748 | 11 | 
CC[C@H](C)[C@H](NC(=O)[C@H](CCCNC(=N)N)NC(=O)[C@@H](NC(=O)[C@H](CO)NC(=O)[C@H](CC(N)=O)NC(=O)[C@H](CC(=O)O)NC(=O)[C@H](CCCCN)NC(=O)[C@H](CO)NC(=O)[C@H](Cc1ccc(O)cc1)NC(=O)[C@@H](NC(=O)[C@H](C)NC(=O)[C@@H](N)Cc1c[nH]c2ccccc12)C(C)C)[C@@H](C)CC)C(=O)NCC(=O)N[C@@H](CO)C(=O)N[C@@H](CCCCN)C(=O)O [Flu.NA.77] | 5400 | 1600 | 36 | 642 | 19500 | 
CC[C@H](C)[C@H](NC(=O)[C@@H]1CCCN1C(=O)[C@H](CCCNC(=N)N)NC(=O)[C@@H](NC(=O)[C@H](CCCCN)NC(=O)[C@H](CC(C)C)NC(=O)[C@H](Cc1c[nH]c2ccccc12)NC(=O)[C@H](CCC(=O)O)NC(=O)[C@H](CCSC)NC(=O)[C@H](CC(C)C)NC(=O)[C@H](C)NC(=O)[C@@H](N)CCC(=O)O)[C@@H](C)O)C(=O)N[C@@H](CC(C)C)C(=O)N[C@@H](CO)C(=O)N1CCC[C@H]1C(=O)O [Flu.M1.43] | 9.5 |  | 380 | 18 | 5510 | 
CC[C@H](C)[C@H](N)C(=O)N[C@@H](CC(C)C)C(=O)N[C@@H](CO)C(=O)N[C@H](C(=O)N[C@@H](Cc1ccc(O)cc1)C(=O)N[C@@H](CO)C(=O)N[C@H](C(=O)N[C@H](C(=O)N[C@@H](C)C(=O)N[C@@H](CO)C(=O)N[C@@H](CO)C(=O)N[C@@H](CC(C)C)C(=O)N[C@@H](C)C(=O)N[C@@H](CC(C)C)C(=O)N[C@@H](C)C(=O)N[C@H](C(=O)O)[C@@H](C)CC)C(C)C)[C@@H](C)O)[C@@H](C)CC [Flu.HA.532] | 11 | 91 | 7.6 | 20 | 824 | IC50 [2, 11]: 11 nM; IC50 ([3]; Table 4): 91 nM; IC50 ([5]; Table 4): 20 nM; IC50 [6, 12]: 824 nM
CC[C@H](C)[C@H](NC(=O)[C@H](CS)NC(=O)[C@@H](NC(=O)[C@H](CCC(N)=O)NC(=O)[C@H](CC(=O)O)NC(=O)[C@H](CO)NC(=O)[C@H](CCCCN)NC(=O)[C@@H](NC(=O)[C@H](CC(C)C)NC(=O)[C@H](CO)NC(=O)[C@@H](N)C(C)C)C(C)C)[C@@H](C)CC)C(=O)NCC(=O)N[C@@H](Cc1ccc(O)cc1)C(=O)N[C@@H](Cc1c[nH]cn1)C(=O)N[C@@H](C)C(=O)O [Flu.HA.11] |  |  |  | 14500 | 32 | IC50 [7]: 511 nM
CSCC[C@H](NC(=O)[C@H](CCCNC(=N)N)NC(=O)[C@H](CCSC)NC(=O)[C@@H](N)C(C)C)C(=O)NCC(=O)N[C@@H](CC(=O)O)C(=O)N[C@@H](CC(C)C)C(=O)N[C@@H](Cc1c[nH]cn1)C(=O)N[C@@H](CO)C(=O)N[C@@H](CC(C)C)C(=O)N[C@@H](CCC(N)=O)C(=O)N[C@@H](CC(N)=O)C(=O)N[C@@H](CCCNC(=N)N)C(=O)N[C@@H](CC(N)=O)C(=O)NCC(=O)O [Flu.NS2.125] | 249 | 448 | 1370 | 372 | 8820 | 
CC[C@H](C)[C@H](N)C(=O)N[C@@H](Cc1ccc(O)cc1)C(=O)N[C@@H](CCC(N)=O)C(=O)N[C@H](C(=O)N[C@@H](CC(C)C)C(=O)N[C@@H](CO)C(=O)N[C@H](C(=O)N[C@@H](Cc1ccc(O)cc1)C(=O)N[C@@H](CO)C(=O)N[C@H](C(=O)N[C@H](C(=O)N[C@@H](C)C(=O)N[C@@H](CO)C(=O)N[C@@H](CO)C(=O)N[C@@H](CC(C)C)C(=O)N[C@@H](C)C(=O)O)C(C)C)[C@@H](C)O)[C@@H](C)CC)[C@@H](C)CC [Flu.HA.529] | 55 | 89 | 13 | 4.7 | 18 | IC50 [2, 11]: 55 nM; IC50 ([3]; Table 4): 89 nM; IC50 ([5]; Table 4): 4.7 nM; IC50 [6, 12]: 18 nM
CC(C)C[C@H](NC(=O)CNC(=O)[C@@H](NC(=O)[C@H](C)NC(=O)[C@H](CC(C)C)NC(=O)[C@@H](NC(=O)[C@H](CC(C)C)NC(=O)[C@H](CCCNC(=N)N)NC(=O)[C@H](CC(N)=O)NC(=O)[C@H](CO)NC(=O)[C@H](CCCCN)NC(=O)[C@@H](NC(=O)[C@H](Cc1ccc(O)cc1)NC(=O)[C@H](CCCCN)NC(=O)[C@@H]1CCCN1C(=O)[C@@H](N)CS)C(C)C)C(C)C)[C@@H](C)O)C(=O)O [Flu.HA.318] | 2760 | 868 | 48 | 230 | 287 | IC50 [7]: 2920 nM
ISGVKLESIGIYQILSI [Flu.HA.519] |  | 3110 | 408 | 9.2 | 16 | 
CC[C@H](C)[C@H](NC(=O)CNC(=O)[C@H](CO)NC(=O)[C@@H](NC(=O)CNC(=O)[C@H](Cc1ccccc1)NC(=O)[C@H](CO)NC(=O)[C@@H]1CCCN1C(=O)[C@@H](N)CC(C)C)C(C)C)C(=O)N[C@@H](CC(N)=O)C(=O)N[C@@H](CCC(=O)O)C(=O)N[C@@H](CO)C(=O)N[C@@H](C)C(=O)N[C@@H](CC(=O)O)C(=O)N[C@@H](CCSC)C(=O)O [Flu.PB1.512] |  | 44 |  |  | 48 | IC50 [8]: 39 nM

Reference: patent publication US9511134B2, “Inducing immune responses to influenza virus using polypeptide and nucleic acid compositions” (priority 2006, dated 2016)
